Assay results published in US10407734B2, “Compositions and methods of using transposons” (Yale University, priority 2013, dated 2019).
Entries after “also recorded” stand apart in the source; their conditions may differ.

Experiments:
A549 lung cancer cells = test: AlamarBlue cell viability assay on A549 cells; format: cell-based, human; conditions: viable cells vs vehicle after 5 days; SMARCA4 frame shift deletion
Experimental: (§1) Cell Viability Assay. To determine the effects of various drug treatments on oncogenic RAS mutant cells, an AlamarBlue assay (Invitrogen) was performed. 2500 cells were seeded in triplicate in 96-well plates one day prior to drug treatments. For TRI-102 and AML-RAS cells, fluorescence was measured at 72 hrs after drug addition. For other oncogenic RAS cells, fluorescence was measured 120 hrs after drug addition.
as §1, with “cells,” for “cells, an”

[1] = tested on: patient-derived cancer cells with oncogenic RAS mutations (lung, colon, pancreatic, melanocytic); test: AlamarBlue cell viability assay on panel of 17 patient-derived oncogenic RAS cancer cells; format: cell-based, human; conditions: panel of 17 lines; viable cells vs vehicle after 5 days
Experimental: as §1
as §1, with “cells,” for “cells, an”

AML-RAS cells [2] = test: AlamarBlue cell viability assay on AML-RAS cells; format: cell-based, human; conditions: 3 days after treatment; 20 mM LiCl, 5 uM Kenpaullone or 2 uM BIO
Experimental: as §1
as §1, with “cells,” for “cells, an”

A549 cells = test: Soft agar assay on A549 cells; format: cell-based, human; conditions: 20 mM LiCl
Experimental: (§2) Softagar Assay. Soft agar assays were performed in triplicate in 6-well plates. For each well, a bottom layer containing 1% agar in growth medium was added. Then 10,000 cells were plated in 0.5% agar in growth medium. Growth medium was added to each well and changed every 3 days. The colonies were counted after 3-4 weeks.

H1792 cells = test: Soft agar assay on H1792 cells; format: cell-based, human; conditions: 20 mM LiCl
Experimental: as §2

AML-RAS cells [3] = test: Soft agar assay on AML-RAS cells; format: cell-based, human; conditions: 20 mM LiCl; colonies counted after 3-4 weeks
Experimental: as §2

AML-RAS xenografts = test: AML-RAS cell xenograft model; format: in vivo, nude mice; conditions: LiCl 340 mg/kg intraperitoneal every two days, 28 days
Experimental: (§3) Xenograft. 10^6 AML-RAS cells were resuspended in PBS and inoculated subcutaneously into both flanks of 6-week old female nude mice (Charles River Laboratory). Seven days after transplantation, animals were treated with intraperitoneal injections of LiCl (340 mg/kg body weight), or an equal volume of vehicle (PBS) every two days. Tumor volume (mm3) and body weight (g) were measured every 2 days. The tumor volume was estimated by using caliper measurements based on formula W^2×L/2 (L is the length of the tumor, W is the width of the tumor). All experiments were approved by and conducted in compliance with the Yale Animal Resources Center and the Institutional Animal Care and Use Committee under protocol number 2008-10230.
as §3, with “estimated” for “estimated by”, “All experiments were approved by and conducted in compliance with the Yale Animal Resources Center and the Institutional Animal Care and Use Committee under protocol number 2008-10230.” left out

Row | SMILES | growth of A549 lung cancer cells (A549 lung cancer cells) | growth of patient-derived cancer cells harboring oncogenic KRAS, NRAS or HRAS mutations [1] | growth of the AML-RAS cells (viable cells) (AML-RAS cells [2]) | anchorage-independent growth of the A549 cells in soft agar (A549 cells) | anchorage-independent growth of the H1792 cells in soft agar (H1792 cells) | anchorage-independent growth of the AML-RAS cells in soft agar (AML-RAS cells [3]) | tumor growth in AML-RAS xenografts (AML-RAS xenografts; nude mice) | health of the recipient mice (body weight) (AML-RAS xenografts; tumor-suppressing dose)
1 | O=C1Cc2c([nH]c3ccc(Br)cc23)-c2ccccc2N1 [Kenpaullone] | not significantly suppressed | suppresses the growth | specifically inhibited the growth |  |  |  |  | 
2 | [Cl-].[Li+] [LiCl, lithium chloride] | not significantly suppressed | suppresses the growth | specifically impaired the growth | failed to suppress | completely inhibited; also recorded: dramatically inhibited | prevented; also recorded: dramatically suppressed | dramatically suppressed | not affected
3 | O=C1Nc2cc(Br)ccc2/C1=C1/Nc2ccccc2/C1=N\O [BIO, 6-bromoindirubin-30-oxime] | not significantly suppressed | suppresses the growth | specifically inhibited the growth |  |  |  |  | 
